Experimental data reported in PMC6297231 (Nature Communications, 2018).
pEC50: −log10 of the molar value. Read-outs that look alike come from different tables or passages of the source.

Tests used:
[1] = tested on: NCI-H23 cells depleted of Bak; assay: Caspase-3/7 activation after Bak siRNA; type: cell-based; conditions: Bak siRNA 72 h, then 6 h treatment
Protocol: NCI-H23 cells were trypsinized and resuspended in growth medium. SiRNA targeting Bak (cat#S1881, ThermoFisher Scientific) or non-targeting siRNA (cat#4390847, ThermoFisher Scientific), and Lipofectamine RNAiMAX (ThermoFisher Scientific) were mixed in OPTIMEM and incubated at room temperature for 20 min. Next, cell suspension was added to each siRNA master mix, dispensed into each well of a 96-well plate and incubated for 72 h.

MEWO = assay: Cell viability assay; type: cell-based; conditions: Homo sapiens, 24 h; MEWO (Skin); read-out: AZD5991 24h GI50
Protocol: (§1) Cells were plated at 3000 cells/well in 384-well white plates in corresponding cell growth media. […] Caspase-3/7 activation was subsequently determined using a Caspase-Glo 3/7 Reagent (Promega) and viability was assayed using the CellTiter-Glo Reagent (Promega) as described in manufacturer’s instructions. Dose–response curves for caspase-3/7 activation and viability were plotted and analyzed (including EC50 and GI50 determination) using GraphPad Prism.

MV4-11 tumors = assay: MV4-11 subcutaneous mouse xenograft efficacy; type: in vivo, mice; conditions: for tumor regression (TR): transient
Protocol: Female C.B.-17 SCID mice and female nude rats were purchased from Charles River Laboratories. […]. All xenograft studies were conducted at our Association for the Assessment and Accreditation of Laboratory Animal Care accredited facility in Waltham, MA in accordance with ethical regulations described in the guidelines established by the internal Institutional Animal Care and Use Committee. […]. In mice, drugs were dosed intravenously in a volume of 5 mL kg^-1 except for venetoclax that was dosed orally in a volume of 10 mL kg^-1. […]. Ten million MV4-11 cells were injected subcutaneously in the right flank of rats in a volume of 0.1 mL. Tumor volumes (measured by caliper), animal body weight, and tumor condition were recorded twice weekly for the duration of the study. The tumor volume was calculated using the formula: length (mm) × width (mm)^2[…]. For efficacy studies, growth inhibition from the start of treatment was assessed by comparison of the differences in tumor volume between control and treated groups. Statistical significance was evaluated using non-parametric, unpaired, two-tailed t-test. For efficacy studies, animals were randomized based on tumor volumes using stratified sampling, and enrolled into control and treatment groups. Dosing began when mean tumor size reached ~230 mm^3 in mice and 900 mm^3 in rats. Mice were euthanized once tumor size reached 2000 mm^3. Mice were excluded from the study upon body weight loss > 10% of the body weight at the initiation of the study. For pharmacokinetic analysis, plasma samples were precipitated and diluted with acetonitrile containing internal standard and analyzed by LC–MS/MS versus a calibration curve of known concentrations.

RI1 = assay: Cell viability assay; type: cell-based; conditions: Ri-1, 24 h; RI1 (NHL); read-out: AZD5991 24h GI50
Protocol: as §1

ME1 = assay: Caspase-3/7 activation assay; type: cell-based; conditions: ME-1, 6 h
Protocol: as §1

Sudhl5 = assay: Cell viability assay; type: cell-based; conditions: Homo sapiens, SU-DHL-5, 24 h; Sudhl5 (NHL); read-out: AZD5991 24h GI50
Protocol: as §1

647V = assay: Cell viability assay; type: cell-based; conditions: Homo sapiens, 24 h; 647V (Urology); read-out: AZD5991 24h GI50
Protocol: as §1

OCIAML5 = assay: Cell viability assay; type: cell-based; conditions: Homo sapiens, OCI-AML-5, 24 h, read-out: AZD5991 24h GI50
Protocol: as §1

Ramos = assay: Cell viability assay; type: cell-based; conditions: Homo sapiens, 24 h; Ramos (NHL); read-out: AZD5991 24h GI50
Protocol: as §1

[2] = tested on: Eμ-Myc lymphoma cells stably expressing human Bcl-2; assay: Apoptosis induction in Eμ-Myc lymphoma cells; conditions: overexpression of Bcl-2, 24 h
Text: The retroviral plasmids to express human Bcl-2 family members in murine Eμ-Myc lymphoma cells are MSCV-hMCL-1-GFP, MSCV-hBCL-2-GFP, MSCV-hBCL-XL-GFP, MSCV-hBFL-1/A1-GFP, and MSCV-hBCL-w-GFP. To produce viruses, constructs of interest were co-transfected into HEK293T cells with the plasmid encoding the packaging viruses (p-CL-AMPHO provided by Phillip Darcy from Peter MacCallum Cancer Center, Melbourne, Australia) using standard calcium phosphate transient transfection technique. The retroviruses were harvested, filtered and used to infect target cells following standard procedures.
Samples were then centrifuged, washed twice with PBS and analyzed by flow cytometry in a BD LSRFortessa. FACSDiva software was used for data collection and FlowJo software for data analysis.

HEL92.1.7 = assay: Cell viability assay; type: cell-based; conditions: Homo sapiens, HEL 92.1.7, 24 h; HEL92.1.7 (AML); read-out: AZD5991 24h GI50
Protocol: as §1

JEKO1 = assay: Cell viability assay; type: cell-based; conditions: Homo sapiens, JeKo-1, 24 h; JEKO1 (NHL); read-out: AZD5991 24h GI50
Protocol: as §1

Sudhl8 = assay: Cell viability assay; type: cell-based; conditions: Homo sapiens, SU-DHL-8, 24 h; Sudhl8 (NHL); read-out: AZD5991 24h GI50
Protocol: as §1

MAVER1 = assay: Cell viability assay; type: cell-based; conditions: Homo sapiens, 24 h; MAVER1 (NHL); read-out: AZD5991 24h GI50
Protocol: as §1

MOLP8 = assay: Caspase-3/7 activation assay; type: cell-based; conditions: Homo sapiens
Protocol: as §1

FaDu = assay: Cell viability assay; type: cell-based; conditions: Homo sapiens, 24 h; FaDu (Others); read-out: AZD5991 24h GI50
Protocol: as §1

OCIM1 = assay: Cell viability assay; type: cell-based; conditions: OCI-M1, 24 h; OCIM1 (AML); read-out: AZD5991 24h GI50
Protocol: as §1

MM1S = assay: Cell viability assay; type: cell-based; conditions: Homo sapiens, MM1.S, 24 h; MM1S (MM); read-out: AZD5991 24h GI50
Protocol: as §1

H460 = assay: Cell viability assay; type: cell-based; conditions: Homo sapiens, NCI-H460, 24 h; H460 (Lung); read-out: AZD5991 24h GI50
Protocol: as §1

DLD1 = assay: Cell viability assay; type: cell-based; conditions: Homo sapiens, DLD-1, 24 h; DLD1 (GI); read-out: AZD5991 24h GI50
Protocol: as §1

In the case of `Cc1c2c(nn1C)CSCc1cc(n(C)n1)CSc1cc(c3ccccc3c1)OCCCc1c(C(=O)O)n(C)c3c-2c(Cl)ccc13` (atropisomer, axis not shown; (Ra)) [(Ra)-7], the “caspase-3/7 activation and cell death” value [1] was “confers resistance”, the GI50 (MEWO) was 7680 nM and the “tumor regression (TR)” value (MV4-11 tumors; single i.v. dose 10 mg kg^−1, 7 days after treatment) was 66%. The “tumor regression (TR)” value (MV4-11 tumors; single i.v. dose 30 mg kg^−1, 7 days after treatment) was 93%, the “mice with complete TR” value (MV4-11 tumors; single i.v. dose 100 mg kg^−1) was “six out of six” and the GI50 (RI1) was 28200 nM. It also gave a pEC50 (ME1; read-out: 6h caspase EC50, ME1, single agent) of under 6.48, a pEC50 (ME1; read-out: AZD5991 6h EC50, ME1 (AML), caspase 3/7 activation) of 6.49 and a GI50 (Sudhl5) of 18 nM. For the same compound, the GI50 (647V) was 22300 nM, the GI50 (OCIAML5) was 11000 nM and the GI50 (Ramos) was 11 nM. For the same compound, the apoptosis-inducing activity [2] was “blocked”, the GI50 (HEL92.1.7) was 1640 nM and the GI50 (JEKO1) was 452 nM. It also gave a GI50 (Sudhl8) of 198 nM, a GI50 (MAVER1) of 530 nM and a pEC50 (MOLP8; MOLP-8, 6 h, read-out: AZD5991 6h EC50, MOLP8 (MM), caspase 3/7 activation) of 7.24. It also gave a pEC50 (MOLP8; MOLP-8, MOLP-8 cells, 0% serum, read-out: caspase-inducing activity EC50) of 9.00, a pEC50 (MOLP8; MOLP-8, MOLP-8 cells, 2% serum, read-out: caspase-inducing activity EC50) of 8.10 and a pEC50 (MOLP8; MOLP-8, caspase activation, Mcl-1-dependent cell line, read-out: MOLP-8, EC50) of 7.48. The EC50 (MOLP8; MOLP-8, mean of log transformed data, read-out: MOLP-8 caspase pEC50 (converted)) was 33.1 nM, the GI50 (FaDu) was 8870 nM and the GI50 (OCIM1) was 27700 nM. The GI50 (MM1S) was 348 nM, the GI50 (H460) was 26400 nM and the GI50 (DLD1) was 15100 nM.
